{"source": "patent US9085555B2", "about": "“Complement pathway modulators and uses thereof” (priority 2011, dated 2015)", "data": [{"target": "Factor D (Homo sapiens (Human), UniProt P00746)", "sequence (P00746 26-253)": "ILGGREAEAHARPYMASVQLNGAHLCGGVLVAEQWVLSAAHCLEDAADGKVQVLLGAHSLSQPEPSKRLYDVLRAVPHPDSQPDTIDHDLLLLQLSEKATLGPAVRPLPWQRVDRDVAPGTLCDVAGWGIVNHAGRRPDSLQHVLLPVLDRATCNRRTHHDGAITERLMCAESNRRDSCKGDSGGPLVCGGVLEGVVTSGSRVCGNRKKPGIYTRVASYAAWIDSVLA", "assay": "biochemical", "assay_type": "biochemical", "details": "read-out: IC50", "units": {"IC50": "nM"}, "values": [{"smiles": "Cn1nc(-c2ccccc2)cc1NC(=O)[C@@H]1CCCN1C(=O)Nc1cn(C(N)=O)c2ccccc12", "note": "[Example 199, (S)-Pyrrolidine-1,2-dicarboxylic acid 1-[(1-carbamoyl-1H-indol-3-yl)-amide] 2-[(2-methyl-5-phenyl-2H-pyrazol-3-yl)-amide]]", "IC50": 8650}, {"smiles": "COC(=O)[C@H]1C[C@@H](C(=O)NCc2cccc(Cl)c2F)N(C(=O)Nc2cn(C(N)=O)c3ccccc23)C1", "note": "[Example 200, (3S,5S)-1-(1-Carbamoyl-1H-indol-3-ylcarbamoyl)-5-(3-chloro-2-fluoro-benzylcarbamoyl)-pyrrolidine-3-carboxylic acid methyl ester]", "IC50": 25}, {"smiles": "NC(=O)n1cc(NC(=O)N2C[C@](O)(CO)C[C@H]2C(=O)NCc2cccc(Cl)c2F)c2ccccc21", "note": "[Example 202, (2S,4S)-4-Hydroxy-4-hydroxymethyl-pyrrolidine-1,2-dicarboxylic acid 1-[(1-carbamoyl-1H-indol-3-yl)-amide] 2-(3-chloro-2-fluoro-benzylamide)]", "IC50": 450}, {"smiles": "NC(=O)n1cc(NC(=O)N2[C@@H]3C[C@@H]3C[C@H]2C(=O)N[C@H](CO)c2cccc(Cl)c2F)c2ccccc21", "note": "[Example 203, (1R,3S,5R)-2-Aza-bicyclo[3.1.0]hexane-2,3-dicarboxylic acid 2-[(1-carbamoyl-1H-indol-3-yl)-amide] 3-{[(S)-1-(3-chloro-2-fluoro-phenyl)-2-hydroxy-ethyl]-amide}]", "IC50": 6}, {"smiles": "CO[C@H]1[C@@H](C(=O)NCc2cccc(Cl)c2F)N(C(=O)Nc2cn(C(N)=O)c3ccccc23)C[C@@H]1F", "note": "[Example 204, (2S,3S,4S)-4-Fluoro-3-methoxy-pyrrolidine-1,2-dicarboxylic acid 1-[(1-carbamoyl-1H-indol-3-yl)-amide] 2-(3-chloro-2-fluoro-benzylamide)]", "IC50": 7}, {"smiles": "C[C@@]1(F)C[C@@H](C(=O)NCc2cccc(Cl)c2F)N(C(=O)Nc2cn(C(N)=O)c3ccccc23)C1", "note": "[Example 205, (2S,4R)-4-Fluoro-4-methyl-pyrrolidine-1,2-dicarboxylic acid 1-[(1-carbamoyl-1H-indol-3-yl)-amide] 2-(3-chloro-2-fluoro-benzylamide)]", "IC50": 14}, {"smiles": "CC(=O)N[C@H]1[C@@H](C(=O)NCc2cccc(Cl)c2F)N(C(=O)Nc2cn(C(N)=O)c3ccccc23)C[C@@H]1F", "note": "[Example 206, (2S,3S,4S)-3-Acetylamino-4-fluoro-pyrrolidine-1,2-dicarboxylic acid 1-[(1-carbamoyl-1H-indol-3-yl)-amide] 2-(3-chloro-2-fluoro-benzylamide)]", "IC50": 187}, {"smiles": "NC(=O)n1cc(NC(=O)N2C[C@@H]3C[C@@H]3[C@H]2C(=O)N[C@H](CO)c2cccc(Cl)c2F)c2ccccc21", "note": "[Example 207, (1S,2S,5R)-3-Azabicyclo[3.1.0]hexane-2,3-dicarboxylic acid 3-[(1-carbamoyl-1H-indol-3-yl)-amide] 2-{[(S)-1-(3-chloro-2-fluoro-phenyl)-2-hydroxy-ethyl]-amide}]", "IC50": 321}, {"smiles": "NC(=O)n1cc(NC(=O)N2CC[C@H](F)[C@H]2C(=O)NCc2cccc(Cl)c2F)c2ccccc21", "note": "[Example 208, (2R,3S)-3-Fluoro-pyrrolidine-1,2-dicarboxylic acid 1-[(1-carbamoyl-1H-indol-3-yl)-amide] 2-(3-chloro-2-fluoro-benzylamide)]", "IC50": 29}, {"smiles": "NC(=O)n1cc(NC(=O)N2C[C@](F)(CN3CCOCC3)C[C@H]2C(=O)NCc2cccc(Cl)c2F)c2ccccc21", "note": "[Example 209, (2S,4R)-4-Fluoro-morpholin-4-ylmethyl-pyrrolidine-1,2-dicarboxylic acid 1-[(1-carbamoyl-1H-indol-3-yl)-amide] 2-(3-chloro-2-fluoro-benzylamide)]", "IC50": 1900}, {"smiles": "NC(=O)n1cc(NC(=O)N2C[C@H]3C[C@H]3[C@H]2C(=O)NCc2cccc(Cl)c2F)c2ccccc21", "note": "[Example 210, (1R,2S,5S)-3-Aza-bicyclo[3.1.0]hexane-2,3-dicarboxylic acid 3-[(1-carbamoyl-1H-indol-3-yl)-amide] 2-(3-chloro-2-fluoro-benzylamide)]", "IC50": 22}, {"smiles": "CC(=O)N[C@@H]1CN(C(=O)Nc2cn(C(N)=O)c3ccccc23)[C@H](C(=O)NCc2cccc(Cl)c2F)[C@H]1F", "note": "[Example 211, (2R,3S,4R)-4-Acetylamino-3-fluoro-pyrrolidine-1,2-dicarboxylic acid 1-[(1-carbamoyl-1H-indol-3-yl)-amide] 2-(3-chloro-2-fluoro-benzylamide)]", "IC50": 1320}, {"smiles": "NC(=O)n1cc(NC(=O)N2C[C@H]3C[C@H]3[C@H]2C(=O)N[C@H](CO)c2cccc(Cl)c2F)c2ccccc21", "note": "[Example 212, (1R,2S,5S)-3-Azabicyclo[3.1.0]hexane-2,3-dicarboxylic acid 3-[(1-carbamoyl-1H-indol-3-yl)-amide] 2-{[(S)-1-(3-chloro-2-fluoro-phenyl)-2-hydroxy-ethyl]-amide}]", "IC50": 10}, {"smiles": "NC(=O)n1cc(NC(=O)N2CC[C@@H](O)[C@H]2C(=O)NCc2cccc(Cl)c2F)c2ccccc21", "note": "[Example 213, (2S,3R)-3-Hydroxy-pyrrolidine-1,2-dicarboxylic acid 1-[(1-carbamoyl-1H-indol-3-yl)-amide] 2-(3-chloro-2-fluoro-benzylamide)]", "IC50": 12}, {"smiles": "COC[C@@]12C[C@@H]1N(C(=O)Nc1cn(C(N)=O)c3ccccc13)[C@H](C(=O)NCc1cccc(Cl)c1F)C2", "note": "[Example 214, (1S,3S,5R)-5-Methoxymethyl-2-aza-bicyclo[3.1.0]hexane-2,3-dicarboxylic acid 2-[(1-carbamoyl-1H-indol-3-yl)-amide] 3-(3-chloro-2-fluoro-benzylamide)]", "IC50": 1570}, {"smiles": "NC(=O)n1cc(NC(=O)N2C[C@H](F)C[C@H]2C(=O)NCc2cncc(F)c2)c2ccccc21", "note": "[Example 215, (2S,4R)-4-Fluoro-pyrrolidine-1,2-dicarboxylic acid 1-[(1-carbamoyl-1H-indol-3-yl)-amide] 2-[(5-fluoro-pyridin-3-ylmethyl)-amide]]", "IC50": 386}, {"smiles": "COc1ccc2c(NC(=O)N3C4CC4C[C@H]3C(=O)NCc3cccc(Cl)c3F)cn(C(N)=O)c2c1", "note": "(stereo partly drawn) [Example 216, (1R,3S,5R)-2-Aza-bicyclo[3.1.0]hexane-2,3-dicarboxylic acid 2-[(1-carbamoyl-6-methoxy-1H-indol-3-yl)-amide] 3-(3-chloro-2-fluoro-benzylamide)]", "IC50": 65}, {"smiles": "NC(=O)n1cc(NC(=O)N2[C@@H]3C[C@@H]3C[C@H]2C(=O)N[C@H](CO)c2cccc(Br)c2)c2ccccc21", "note": "[Example 217, (1R,3S,5R)-2-Azabicyclo[3.1.0]hexane-2,3-dicarboxylic acid 3-{[(S)-1-(3-bromo-phenyl)-2-hydroxy-ethyl]-amide} 2-[(1-carbamoyl-1H-indol-3-yl)-amide]]", "IC50": 41}, {"smiles": "COC(=O)c1cccc(NC(=O)[C@@H]2CCCN2C(=O)Nc2cn(C(N)=O)c3ccccc23)c1", "note": "[Example 219, 3-{[(S)-1-(1-Carbamoyl-1H-indol-3-ylcarbamoyl)-pyrrolidine-2-carbonyl]-amino}-benzoic acid methyl ester]", "IC50": 1850}, {"smiles": "NC(=O)n1cc(NC(=O)N2CCCC[C@H]2C(=O)NCc2cccc(Cl)c2F)c2ccccc21", "note": "[Example 220, (S)-Piperidine-1,2-dicarboxylic acid 1-[(1-carbamoyl-1H-indol-3-yl)-amide] 2-(3-chloro-2-fluoro-benzylamide)]", "IC50": 233}, {"smiles": "CC(=O)NC[C@@]1(F)C[C@@H](C(=O)NCc2cccc(Cl)c2F)N(C(=O)Nc2cn(C(N)=O)c3ccccc23)C1", "note": "[Example 221, (2S,4S)-4-(Acetylamino-methyl)-4-fluoro-pyrrolidine-1,2-dicarboxylic acid 1-[(1-carbamoyl-1H-indol-3-yl)-amide] 2-(3-chloro-2-fluoro-benzylamide)]", "IC50": 23}, {"smiles": "NC(=O)n1cc(NC(=O)N2C[C@H](F)C[C@H]2C(=O)NCc2cccc(C(F)(F)F)c2F)c2ccccc21", "note": "[Example 222, (2S,4R)-4-Fluoro-pyrrolidine-1,2-dicarboxylic acid 1-[(1-carbamoyl-1H-indol-3-yl)-amide] 2-(2-fluoro-3-trifluoromethyl-benzylamide)]", "IC50": 137}, {"smiles": "NC(=O)n1cc(NC(=O)N2[C@@H]3C[C@@H]3C[C@H]2C(=O)N[C@H](CCO)c2cccc(Cl)c2F)c2ccccc21", "note": "[Example 223, (1R,3S,5R)-2-Azabicyclo[3.1.0]hexane-2,3-dicarboxylic acid 2-[(1-carbamoyl-1H-indol-3-yl)-amide] 3-{[(R)-1-(3-chloro-2-fluoro-phenyl)-3-hydroxy-propyl]-amide}]", "IC50": 12}, {"smiles": "COc1ccc(CNC(=O)[C@@H]2SCCN2C(=O)Nc2cn(C(N)=O)c3ccccc23)c(F)c1F", "note": "[Example 225, (S)-Thiazolidine-2,3-dicarboxylic acid 3-[(1-carbamoyl-1H-indol-3-yl)-amide] 2-(2,3-difluoro-4-methoxy-benzylamide)]", "IC50": 350}, {"smiles": "NC(=O)n1cc(NC(=O)N2[C@@H]3C[C@@H]3C[C@H]2C(=O)NCc2cccnc2)c2ccccc21", "note": "[Example 226, (1R,3S,5R)-2Azabicyclo[3.1.0]hexane-2,3-dicarboxylic acid 2-[(1-carbamoyl-1H-indol-3-yl)amide] 3-[(pyridin-3-ylmethyl)-amide]]", "IC50": 417}, {"smiles": "C[C@H]1CCN(C(=O)Nc2cn(C(N)=O)c3ccccc23)[C@@H]1C(=O)Nc1cccc(OC(F)(F)F)c1", "note": "[Example 227, (2S,3S)-3-Methyl-pyrrolidine-1,2-dicarboxylic acid 1-[(1-carbamoyl-1H-indol-3-yl)-amide] 2-[(3-trifluoromethoxy-phenyl)-amide]]", "IC50": 800}, {"smiles": "NC(=O)n1cc(NC(=O)N2C3CC3C[C@H]2C(=O)NCc2cncc(Cl)c2)c2ccccc21", "note": "(stereo partly drawn) [Example 228, (1R,3S,5R)-2-Aza-bicyclo[3.1.0]hexane-2,3-dicarboxylic acid 2-[(1-carbamoyl-1H-indol-3-yl)-amide] 3-[(5-chloro-pyridin-3-ylmethyl)-amide]]", "IC50": 100}, {"smiles": "C[C@@]1(F)C[C@@H](C(=O)N[C@H](CCO)c2cccc(Cl)c2F)N(C(=O)Nc2cn(C(N)=O)c3ccccc23)C1", "note": "[Example 229, (2S,4R)-4-Fluoro-4-methyl-pyrrolidine-1,2-dicarboxylic acid 1-[(1-carbamoyl-1H-indol-3-yl)-amide] 2-{[(R)-1-(3-chloro-2-fluoro-phenyl)-3-hydroxy-propyl]-amide}]", "IC50": 29}]}]}
